Laboratory results taken from patent publication US6352824B1, “Redox reversible bipyridyl-osmium complex conjugates” (Roche Diagnostics Corporation, priority 1998, dated 2002).

Legend:
[1] = molecular target: T1, HbAlc epitope of hemoglobin in lysed blood (Homo sapiens, UniProt P68871); assay: Blood denaturing for electrochemical HbAlc immunoassay
T1 construct: from tissue; host or cells: whole blood, lysed (freeze/thaw) and denatured
Description: Blood lysis is necessary to release the hemoglobin followed by denaturing to expose the HbAlc epitope. Lysis can easily be accomplished via surfactants, osmotic effects of dilution with water, and directly by many denaturants. […] Conversely, denaturing the lysed blood with a variety of known denaturants to expose the HbAlc epitope has shown significant suppression of the electrochemical response, inhibiting measurement of an HbAlc dose response.
Denaturing the sample for antibody recognition without severely fouling the electrode surface is important for successful development of an HbAlc immunoassay. Although LiSCN has been used almost exclusively to show feasibility, it has many limitations that would hinder its use in the disposable. Citric acid, a solid at RT may offer benefits as a denaturant if it could be dried onto a strip followed by a diluent to adjust the pH to neutral. Acid or base blood denaturing followed by a final pH adjustment with a buffered diluent is an area worth further evaluation. One problem that was initially encountered was precipitation in adjusting the pH back to neutral, which can be overcome by using a different buffer or with the addition of surfactants.

Zymed rabbit antibodies = assay: Inhibition of osmium mediator label current with antibody; assay type: binding
Method: (§3) Mediator concentration dose response, inhibition with antibody and reversal with a BSA—Alc polyhaptan were evaluated and summarized in Table 5.

[2] = Storage stability of osmium mediator-peptide conjugates; conditions: for Stability in solution: stored as solution
Method: Stability of the mediator labels were also evaluated by monitoring % inhibition values over time.

HbA0 antibody = assay: Inhibition reversal with A0HB-peptide#1; assay type: binding
Method: as §3

Sheep B<HBA0> = assay: Inhibition of osmium mediator label current with antibody; assay type: binding
Description: HbAlc assay requires measuring both Al c concentration and total hemoglobin concentration and reports the results as a ratio of these two measurements (%HbAlc). It is advantageous to assay both Alc and total hemoglobin using same principle because ratioing would minimize biases due to environmental effects. Thus antibody has been raised to bind specifically to hemoglobins with unglycosylated N-terminus, i.e. with an epitope sequence of Val-His-Leu-Thr(SEQ ID NO:5). Similarly, nonnative amino acid is added to the sequence to facilitate conjugation. The peptides used for total hemoglobin measurement is termed as A0 peptide. A0 peptides that have been used in the preparation of Os mediator-peptide conjugates include Val-His-Leu-Thr-Cys(SEQ ID NO:6) and Val-His-Leu-Thr-Lys(SEQ ID NO:7).

[3] = tested on: PAB IS (polyclonal immunosorbent purified HbAlc antibody); assay: as above; assay type: binding, sheep
Description: 3. Antibodies for the analytes (HbAlc and HbA0) which react specifically with the N-terminal peptides which have been incorporated into the conjugate are provided by standard methods for producing polyclonal antibodies. In this case, sheep were immunized with carrier proteins to which were conjugated the synthetic peptide sequences for HbAlc and HbA0. Following the appropriate immunization schedule, the sheep were bled, and the antibody isolated from the blood via ion exchange chromatography, followed by immunosorbent purification on a column of the same N-terminal peptide with a different linker.
(§1) Polyclonal DE (ion-exchange) purified sheep antibody is used in the TinaQuant HbAlc assay. IS (immunosorbent) antibody is prepared using standard IS purification methodology. Samples of a monoclonal antibody were also obtained for evaluation. Inhibition curves were performed in solution with all mixing occurring in microcentrifuge tubes. Inhibition curves with the three hemoglobin Alc antibodies (PAB IS, PAB DE, and MAB) were generated by fixing OS—DSG—Alc at 5 μM and varying the antibody concentration. […] From the inhibition curves we were able to select reasonable concentrations of antibody for maximum reversal with Alc samples.
While these feasibility studies for a HbAlc immunoassay used an enzyme mediated amplification method. […]

glucose oxidase = glucose oxidase (Aspergillus niger, UniProt P13006); conditions: with glucose oxidase; cited from earlier work
Chain of glucose oxidase (P13006 17-605, species assumed): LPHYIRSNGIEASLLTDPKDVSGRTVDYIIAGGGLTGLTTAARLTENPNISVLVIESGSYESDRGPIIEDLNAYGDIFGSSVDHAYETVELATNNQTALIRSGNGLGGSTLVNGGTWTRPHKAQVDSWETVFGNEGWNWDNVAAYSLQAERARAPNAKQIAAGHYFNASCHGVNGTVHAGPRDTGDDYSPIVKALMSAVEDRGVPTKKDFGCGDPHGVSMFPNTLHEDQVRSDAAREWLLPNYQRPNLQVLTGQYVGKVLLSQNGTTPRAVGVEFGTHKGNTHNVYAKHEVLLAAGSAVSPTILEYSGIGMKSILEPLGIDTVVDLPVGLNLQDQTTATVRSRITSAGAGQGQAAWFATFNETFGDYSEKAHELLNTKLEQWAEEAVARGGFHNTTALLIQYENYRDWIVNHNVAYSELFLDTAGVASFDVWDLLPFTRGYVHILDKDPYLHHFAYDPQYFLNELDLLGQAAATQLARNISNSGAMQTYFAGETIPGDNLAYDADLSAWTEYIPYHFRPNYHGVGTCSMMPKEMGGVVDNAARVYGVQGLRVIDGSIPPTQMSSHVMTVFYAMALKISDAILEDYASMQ

[4] = tested on: MAB (monoclonal HbAlc antibody); assay: Inhibition of osmium mediator label current with antibody; assay type: binding
Method: as §1
(§2) While these feasibility studies for a HbAlc immunoassay used an enzyme mediated amplification method. (Glucdor/PQQ/glucose was used to regenerate reduced mediator after oxidation at the electrode surface providing a higher diffusion controlled current is given by the cottrell equation), they are considered to be indicative of results attainable with the use of IDA electrodes with bipotentiostatic control in accordance with this invention.

[5] = tested on: PAB DE (polyclonal ion-exchange purified HbAlc antibody); assay: as above; assay type: binding, sheep
Method: as §1, §2

T1 sequence (P68871 2-147 limits assumed): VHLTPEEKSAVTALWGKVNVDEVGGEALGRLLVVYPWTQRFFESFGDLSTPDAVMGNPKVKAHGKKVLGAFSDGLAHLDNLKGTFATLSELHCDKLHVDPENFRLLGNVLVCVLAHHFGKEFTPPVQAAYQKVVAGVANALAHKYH

Cl [Hydrochloric Acid]
Evidence of blood denaturing [1]: Evidence of blood denaturing was seen by all: “solution

CC(C)CC(NC(=O)C(Cc1cnc[nH]1)NC(=O)C(N)C(C)C)C(=O)NC(C(=O)NC(CCCCNC(=O)CCCCCN1C(=O)CC(SCC(=O)NCCc2c[n+]([Os]34([Cl])([n+]5ccccc5-c5cccc[n+]53)[n+]3ccccc3-c3cccc[n+]34)c[nH]2)C1=O)C(=O)O)C(C)O (stereo not drawn) [Os-SATA-A0]
Inhibition with Zymed rabbit antibodies (Zymed rabbit antibodies): No
Stability in solution [2]: unstable in solu-
Reversal (HbA0 antibody): No
Inhibition with Antibody Sheep B<HBA0> (Sheep B<HBA0>): ≤ 84%

CC(C)CC(NC(=O)C(Cc1cnc[nH]1)NC(=O)C(NCC1(O)OCC(O)C(O)C1O)C(C)C)C(=O)NC(C(=O)NC(CCCCNC(=O)CCCCCN1C(=O)CC(SCC(=O)NCCc2c[n+]([Os]34([Cl])([n+]5ccccc5-c5cccc[n+]53)[n+]3ccccc3-c3cccc[n+]34)c[nH]2)C1=O)C(=O)O)C(C)O (stereo not drawn) [Os-SATA-Alc]
Inhibition with Antibody PAB IS [3]: PAB IS (≦44%)
Stability in solution [2]: Stability similar

[O-][Cl+3]([O-])([O-])O [Perchloric Acid]
Evidence of blood denaturing [1]: Evidence of blood denaturing was seen by all: “solution

bis(bipyridyl) imidazolyl chloroosmium
mediation kinetics relative to ferricyanide (glucose oxidase): about 500 times faster

CC(C)CC(NC(=O)C(Cc1cnc[nH]1)NC(=O)C(NCC1(O)OCC(O)C(O)C1O)C(C)C)C(=O)NC(C(=O)NC(CCCCNC(=O)CCCC(=O)NCCc1c[n+]([Os]23([Cl])([n+]4ccccc4-c4cccc[n+]42)[n+]2ccccc2-c2cccc[n+]23)c[nH]1)C(=O)O)C(C)O (stereo not drawn) [Os-DSG-Alc]
Inhibition with Antibody PAB IS [3]: PAB IS (≦91%)
Stability in lyophilized form ([2]; lyophilized): stable
Stability frozen in solution ([2]; −20° C., 40 and 80 μM): stable
Inhibition with Antibody MAB [4]: MAB (≦78%)
Inhibition with Antibody PAB DE [5]: PAB DE (≦87%)

[Na+].[OH-] [NaOH]
Evidence of blood denaturing [1]: Evidence of denaturing: “solution turned brown.”

CCCCCCCCCCCCCC[N+](C)(C)C.[Br-] [TTAB, Tetra decyltrimethyl ammonium bromide]
Evidence of blood denaturing [1]: Evidence of denaturing: “solution turned green”

O=S(=O)(O)O [Sulfuric Acid]
Evidence of blood denaturing [1]: Evidence of blood denaturing was seen by all: “solution

O=C(O)CC(O)(CC(=O)O)C(=O)O [citric acid]
Blood HbAlc dose response with denatured blood [1]: able to expose the Alc epitope and minimize protein fouling enough to measure an HbAlc dose response
Evidence of blood denaturing [1]: Evidence of blood denaturing was seen by all: “solution

N#C[S-].[Li+] [LiSCN]
Blood HbAlc dose response with denatured blood [1]: able to expose the Alc epitope and minimize protein fouling enough to measure an HbAlc dose response

N#C[S-].[K+] [KSCN]
Blood HbAlc dose response with denatured blood [1]: Initial work did not show a dose response with KSCN
